Experimental data reported in article PMC9774391 (ACS Omega, 2022).

What was measured:
[1] = target: AChE (Homo sapiens, UniProt P22303); experiment: biochemical; conditions: for inhibition at 1000 µM: 10^–3 M; for inhibition at 100 µM: 10^–4 M
Procedure: (§1) According to the modified Ellman approach outlined in our team’s earlier work, the AChE and BChE inhibitory activities of the obtained compounds were evaluated.[18]−[21]

[2] = target: BChE (Homo sapiens, UniProt P06276); experiment: biochemical; conditions: for inhibition at 1000 µM: 10^–3 M; for inhibition at 100 µM: 10^–4 M
Procedure: as §1

[3] = target: T1, MAO-A (Homo sapiens, UniProt P21397); experiment: In vitro MAO-A inhibition assay (fluorometric); format: biochemical; conditions: for inhibition at 1000 µM: 10^–3 M; for inhibition at 100 µM: 10^–4 M
T1 sequence (P21397 1-527): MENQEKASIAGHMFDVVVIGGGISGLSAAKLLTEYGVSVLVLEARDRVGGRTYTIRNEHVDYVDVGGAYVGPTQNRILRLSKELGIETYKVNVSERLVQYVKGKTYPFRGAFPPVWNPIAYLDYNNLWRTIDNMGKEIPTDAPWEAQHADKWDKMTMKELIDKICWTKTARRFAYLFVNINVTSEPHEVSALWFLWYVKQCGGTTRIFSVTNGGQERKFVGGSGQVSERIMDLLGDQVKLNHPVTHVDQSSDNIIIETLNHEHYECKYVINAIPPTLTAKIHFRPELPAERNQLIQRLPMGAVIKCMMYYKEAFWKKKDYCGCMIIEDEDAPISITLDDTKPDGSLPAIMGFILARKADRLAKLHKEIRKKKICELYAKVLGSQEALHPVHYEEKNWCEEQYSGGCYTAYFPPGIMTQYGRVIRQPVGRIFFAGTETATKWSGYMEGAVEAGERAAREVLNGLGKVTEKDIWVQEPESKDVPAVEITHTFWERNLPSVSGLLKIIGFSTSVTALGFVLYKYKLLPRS

[4] = target: T2, MAO-B (Homo sapiens, UniProt P27338); experiment: In vitro MAO-B inhibition assay (fluorometric); format: biochemical; conditions: for inhibition at 1000 µM: 10^–3 M; for inhibition at 100 µM: 10^–4 M; for inhibition at 10 µM: 10^–5 M; for inhibition at 1 µM: 10^–6 M; for inhibition at 0.1 µM: 10^–7 M; for inhibition at 0.01 µM: 10^–8 M; for inhibition at 0.001 µM: 10^–9 M
T2 sequence (P27338 1-520): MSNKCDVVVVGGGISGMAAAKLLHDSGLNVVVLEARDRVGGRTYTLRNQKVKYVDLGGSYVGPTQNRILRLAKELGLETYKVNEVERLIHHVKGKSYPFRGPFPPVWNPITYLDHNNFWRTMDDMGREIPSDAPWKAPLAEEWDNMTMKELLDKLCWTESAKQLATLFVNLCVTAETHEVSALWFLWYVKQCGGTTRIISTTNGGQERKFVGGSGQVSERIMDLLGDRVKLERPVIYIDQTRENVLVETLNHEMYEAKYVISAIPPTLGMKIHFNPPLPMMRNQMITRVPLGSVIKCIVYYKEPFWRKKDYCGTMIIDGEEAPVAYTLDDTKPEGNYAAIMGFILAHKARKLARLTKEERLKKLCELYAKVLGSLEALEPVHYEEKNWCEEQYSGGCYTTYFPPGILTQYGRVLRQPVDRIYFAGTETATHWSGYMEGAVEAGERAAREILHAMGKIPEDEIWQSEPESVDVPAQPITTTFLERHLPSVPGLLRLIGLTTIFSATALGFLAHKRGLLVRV

[5] = Cytotoxicity test (MTT); format: cell-based; conditions: NIH/3T3 mouse embryonic fibroblast cells (ATCC CRL-1658), NIH/3T3 mouse fibroblast healthy cell line
Procedure: The NIH/3T3 cells were incubated according to the manufacturer’s recommendations. In 96-well plates, NIH/3T3 cells were seeded at a density of 1 × 10^4 cells per well. The MTT test was conducted in line with the previously mentioned standards.[19],[22],[23],[28],[30]

[6] = DPPH free-radical scavenging activity assay; conditions: for IC50: serial dilution 10^–3–10^–9 M, read-out: IC50 on DPPH antioxidant activity
Procedure: This approach is based on evaluating the free-radical scavenging abilities of the stable 1,1-diphenyl-2-picrylhydrazyl (DPPH) radical. To create the DPHH solution, 9.86 mg of DPPH was weighed and diluted to 25 mL with methanol. The test wells were then filled with 100 μL of the DPPH solution and 100 μL of the test solutions. Only 200 μL of methanol was used for the blank reading, while the control reading required the usage of 100 μL each of methanol and the DPPH solution. Following incubation, a spectrophotometric measurement at 517 nm was carried out.[26],[27]

[7] = target: T3, Beta Amyloid 1–42 (Aβ42) (Homo sapiens, UniProt P05067); experiment: Beta Amyloid 1–42 (Aβ42) inhibitor screening assay; format: biochemical; conditions: read-out: % β-amyloid plaque inhibition
T3 construct: The Beta Amyloid 1–42 (Aβ42) Ligand Screening Assay kit; purchased BioVision, Milpitas, CA
From the text: The Beta Amyloid 1–42 (Aβ42) Ligand Screening Assay kit (BioVision, Milpitas, CA) technique based on the fluorometric approach served as the basis for the experimental process.[21],[28],[29]

Chain of BChE (P06276 29-602): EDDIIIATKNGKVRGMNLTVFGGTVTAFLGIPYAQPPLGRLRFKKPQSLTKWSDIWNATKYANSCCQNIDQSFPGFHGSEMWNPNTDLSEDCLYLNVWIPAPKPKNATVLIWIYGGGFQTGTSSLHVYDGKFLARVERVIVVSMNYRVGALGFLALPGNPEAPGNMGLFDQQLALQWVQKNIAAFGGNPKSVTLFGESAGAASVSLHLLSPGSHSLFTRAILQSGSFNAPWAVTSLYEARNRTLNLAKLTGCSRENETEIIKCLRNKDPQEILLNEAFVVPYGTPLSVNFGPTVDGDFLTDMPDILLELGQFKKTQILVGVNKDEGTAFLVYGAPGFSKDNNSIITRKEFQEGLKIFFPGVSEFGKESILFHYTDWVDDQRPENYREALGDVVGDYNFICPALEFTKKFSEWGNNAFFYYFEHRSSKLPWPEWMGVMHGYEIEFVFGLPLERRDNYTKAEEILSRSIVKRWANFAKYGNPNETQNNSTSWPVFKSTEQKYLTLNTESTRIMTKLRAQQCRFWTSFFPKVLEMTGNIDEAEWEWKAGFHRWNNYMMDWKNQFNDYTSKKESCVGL
Chain of AChE (P22303 32-614): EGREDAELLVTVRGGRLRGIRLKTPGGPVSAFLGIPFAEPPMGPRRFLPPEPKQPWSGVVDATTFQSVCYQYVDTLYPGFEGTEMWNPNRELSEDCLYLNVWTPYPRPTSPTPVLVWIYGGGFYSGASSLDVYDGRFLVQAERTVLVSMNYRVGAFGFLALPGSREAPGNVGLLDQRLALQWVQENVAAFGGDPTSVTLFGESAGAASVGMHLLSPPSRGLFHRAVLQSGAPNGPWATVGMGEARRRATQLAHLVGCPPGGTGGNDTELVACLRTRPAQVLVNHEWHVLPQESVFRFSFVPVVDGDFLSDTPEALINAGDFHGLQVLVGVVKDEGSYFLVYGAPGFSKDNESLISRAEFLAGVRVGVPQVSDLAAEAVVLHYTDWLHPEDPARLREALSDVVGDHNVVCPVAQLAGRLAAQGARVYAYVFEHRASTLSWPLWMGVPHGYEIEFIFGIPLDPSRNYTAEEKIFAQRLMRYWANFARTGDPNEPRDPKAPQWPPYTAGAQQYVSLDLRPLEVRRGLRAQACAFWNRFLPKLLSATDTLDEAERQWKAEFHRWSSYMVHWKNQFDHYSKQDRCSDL
T3 sequence (P05067 672-713 limits assumed): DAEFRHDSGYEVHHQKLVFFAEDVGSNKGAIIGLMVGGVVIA

Structure (SMILES)	inhibition at 1000 µM [1] [%]	inhibition at 100 µM [1] [%]	inhibition at 1000 µM [2] [%]	inhibition at 100 µM [2] [%]	inhibition at 1000 µM [3] [%]	inhibition at 100 µM [3] [%]	IC50 [4] [nM]	inhibition at 1000 µM [4] [%]	inhibition at 100 µM [4] [%]	inhibition at 10 µM [4] [%]	inhibition at 1 µM [4] [%]	inhibition at 0.1 µM [4] [%]	inhibition at 0.01 µM [4] [%]	inhibition at 0.001 µM [4] [%]	IC50 [5] [nM]	IC50 [6] [nM]	other results
C#CCN(C)CC(=O)Nc1ccc(/C=C2\Cc3ccc(OC)cc3C2=O)cc1 [D32]	33.8 ± 0.885	26.4 ± 0.565	90.9 ± 1.29	24.7 ± 0.455	76.7 ± 1.67	29.7 ± 0.752	66.5 ± 2.4	94.8 ± 1.42	89.6 ± 1.27	81.5 ± 1.8	72.7 ± 1.32	59.6 ± 0.977	34.2 ± 0.514	21.5 ± 0.429	282000 ± 7040	–	–
COc1ccc2c(c1)C/C(=C\c1ccc(NC(=O)CN(C)CCN(C)C)cc1)C2=O [D34]	98.3 ± 1.11	91.1 ± 1.36	91.6 ± 1.03	–	82.1 ± 1.25	38.3 ± 0.458	–	78.5 ± 1.31	47.3 ± 0.676	–	–	–	–	–	75500 ± 2180	302 ± 14	IC50 [1]: 191 ± 8.7 nM; inhibition at 10 µM ([1]; 10^–5 M): 76 ± 1.12%; inhibition at 1 µM ([1]; 10^–6 M): 63.4 ± 0.985%; inhibition at 0.1 µM ([1]; 10^–7 M): 41.2 ± 0.528%; inhibition at 0.01 µM ([1]; 10^–8 M): 32.5 ± 0.588%; inhibition at 0.001 µM ([1]; 10^–9 M): 23.5 ± 0.429%; IC50 [2]: 132 ± 5.1 nM; inhibition at 10 µM ([2]; 10^–5 M): 76.3 ± 1.14%; inhibition at 1 µM ([2]; 10^–6 M): 71.9 ± 1.01%; inhibition at 0.1 µM ([2]; 10^–7 M): 49.7 ± 0.856%; inhibition at 0.01 µM ([2]; 10^–8 M): 31.5 ± 0.405%; inhibition at 0.001 µM ([2]; 10^–9 M): 20.5 ± 0.399%
CCN(CC)CCN(CC)CC(=O)Nc1ccc(/C=C2\Cc3cc(OC)ccc3C2=O)cc1 [D40]	81.3 ± 1.11	41.6 ± 0.995	95.1 ± 1.24	44.3 ± 0.642	84.3 ± 1.27	41.3 ± 0.577	203 ± 9.8	–	88.8 ± 1.3	80.6 ± 1.48	65.2 ± 0.975	43.1 ± 0.662	25.7 ± 0.425	19.9 ± 0.365	6870 ± 297	–	–
CCN(CC)CCN(CC)CC(=O)Nc1ccc(/C=C2\Cc3ccc(OC)cc3C2=O)cc1 [D41]	81 ± 1.6	36.6 ± 0.399	99.15 ± 0.704	46.3 ± 1.37	82.8 ± 2.12	22.5 ± 0.622	209 ± 9.5	90.2 ± 1.36	81.8 ± 1.29	73.3 ± 1.42	65.4 ± 0.975	42.2 ± 0.563	32.7 ± 0.427	21.5 ± 0.385	5890 ± 119	–	–
O=C1O[C@H]([C@@H](O)CO)C(O)=C1O [ascorbic acid, reference compound]	–	–	–	–	–	–	–	–	–	–	–	–	–	–	–	165 ± 7	% DPPH free-radical scavenging (antioxidant) activity ([6]; 10^–3 M): 98.75% ± 1.67; % DPPH free-radical scavenging (antioxidant) activity ([6]; 10^–4 M): 95.22% ± 1.47
O=C(O)CC(O)(CC(=O)O)C(=O)O [citric acid, reference compound]	–	–	–	–	–	–	–	–	–	–	–	–	–	–	–	194 ± 9	% DPPH free-radical scavenging (antioxidant) activity ([6]; 10^–3 M): 99.48% ± 1.45; % DPPH free-radical scavenging (antioxidant) activity ([6]; 10^–4 M): 94.26% ± 1.37
COc1cc(/C=C/C(=O)CC(=O)/C=C/c2ccc(O)c(OC)c2)ccc1O [curcumin, reference compound]	–	–	–	–	–	–	–	–	–	–	–	–	–	–	–	–	inhibition at 1000 µM ([7]; 10^–3 M): 95.9 ± 1.97%; inhibition at 100 µM ([7]; 10^–4 M): 88.2 ± 2.17%
